Converted amounts (≈) assume the structure as drawn.
Columns and labels:
[1] = tested on: Acinetobacter phenon 6/ct 13TU; test: Antimicrobial activity against imipenem and meropenem-resistant Acinetobacter phenon 6/ct 13TU isolate PU86 by CLSI agar dilution method
Acinetobacter baumannii [2] = test: Antimicrobial activity against imipenem and meropenem-resistant Acinetobacter baumannii isolate NJ59 by CLSI agar dilution method; assay type: functional
[3] = tested on: Acinetobacter genospecies 3; test: Antimicrobial activity against imipenem and meropenem-resistant Acinetobacter genospecies 3 isolate PU78 by CLSI agar dilution method
Acinetobacter baumannii [4] = test: Antimicrobial activity against imipenem and meropenem-resistant Acinetobacter baumannii isolate CY7 by CLSI agar dilution method; assay type: functional
[5] = tested on: Acinetobacter genospecies 10/11; test: Antimicrobial activity against imipenem and meropenem-resistant Acinetobacter genospecies 10/11 isolate ZS5 by CLSI agar dilution method
Acinetobacter baumannii [6] = test: Antimicrobial activity against imipenem and meropenem-resistant Acinetobacter baumannii isolate PU4A1 by CLSI agar dilution method; assay type: functional
Acinetobacter baumannii [7] = test: Antimicrobial activity against imipenem and meropenem-resistant Acinetobacter baumannii isolate BJ52 by CLSI agar dilution method; assay type: functional
[8] = tested on: Acinetobacter phenon 6/ct 13TU; test: Antimicrobial activity against imipenem and meropenem-resistant Acinetobacter phenon 6/ct 13TU isolate FZ4A18 by CLSI agar dilution method
Acinetobacter phenon 5 = test: Antimicrobial activity against imipenem and meropenem-resistant Acinetobacter phenon 5 isolate PUA6 by CLSI agar dilution method
Acinetobacter baumannii [9] = test: Antimicrobial activity against imipenem and meropenem-resistant Acinetobacter baumannii isolate DL34 by CLSI agar dilution method; assay type: functional
Acinetobacter baumannii [10] = test: Antimicrobial activity against imipenem and meropenem-resistant Acinetobacter baumannii isolate BJ3-23 by CLSI agar dilution method; assay type: functional
Acinetobacter baumannii [11] = test: Antimicrobial activity against imipenem and meropenem-resistant Acinetobacter baumannii isolate BJ3-9 by CLSI agar dilution method; assay type: functional
Acinetobacter baumannii [12] = test: Antimicrobial activity against imipenem and meropenem-resistant Acinetobacter baumannii isolate ZJ32 by CLSI agar dilution method; assay type: functional
Acinetobacter baumannii [13] = test: Antimicrobial activity against imipenem and meropenem-resistant Acinetobacter baumannii isolate JN45 by CLSI agar dilution method; assay type: functional
Acinetobacter baumannii [14] = test: Antimicrobial activity against imipenem and meropenem-resistant Acinetobacter baumannii isolate PU4A22 by CLSI agar dilution method; assay type: functional
Acinetobacter baumannii [15] = test: Antimicrobial activity against imipenem and meropenem-resistant Acinetobacter baumannii isolate FZ84 by CLSI agar dilution method; assay type: functional
Acinetobacter baumannii [16] = test: Antimicrobial activity against imipenem and meropenem-resistant Acinetobacter baumannii isolate FW-F1 by CLSI agar dilution method; assay type: functional
[17] = tested on: Acinetobacter genospecies 13TU; test: Antimicrobial activity against imipenem and meropenem-resistant Acinetobacter genospecies 13TU isolate CY6 by CLSI agar dilution method
[18] = tested on: Acinetobacter genospecies 3; test: Antimicrobial activity against imipenem and meropenem-resistant Acinetobacter genospecies 3 isolate PUA7 by CLSI agar dilution method
Acinetobacter baumannii [19] = test: Antimicrobial activity against imipenem and meropenem-resistant Acinetobacter baumannii isolate ZJ58 by CLSI agar dilution method; assay type: functional
Acinetobacter baumannii [20] = test: Antimicrobial activity against imipenem and meropenem-resistant Acinetobacter baumannii isolate PU73 by CLSI agar dilution method; assay type: functional
Acinetobacter baumannii [21] = test: Antimicrobial activity against imipenem and meropenem-resistant Acinetobacter baumannii isolate ZJ49 by CLSI agar dilution method; assay type: functional
Acinetobacter baumannii [22] = test: Antimicrobial activity against imipenem and meropenem-resistant Acinetobacter baumannii isolate ZJ36 by CLSI agar dilution method; assay type: functional
[23] = tested on: Acinetobacter genospecies 10/11; test: Antimicrobial activity against imipenem and meropenem-resistant Acinetobacter genospecies 10/11 isolate ZS15 by CLSI agar dilution method
Acinetobacter baumannii [24] = test: Antimicrobial activity against imipenem and meropenem-resistant Acinetobacter baumannii isolate PUA1 by CLSI agar dilution method; assay type: functional
Acinetobacter baumannii [25] = test: Antimicrobial activity against imipenem and meropenem-resistant Acinetobacter baumannii isolate BJ55 by CLSI agar dilution method; assay type: functional
[26] = tested on: Acinetobacter phenon 6/ct 13TU (Acinetobacter sp.); test: Antimicrobial activity against imipenem and meropenem-resistant Acinetobacter phenon 6/ct 13TU isolate PU86 by CLSI agar dilution method
[27] = tested on: Acinetobacter genospecies 3 (Acinetobacter genomosp. 3); test: Antimicrobial activity against imipenem and meropenem-resistant Acinetobacter genospecies 3 isolate PU78 by CLSI agar dilution method; details: Acinetobacter genospecies 3, isolate PU78
[28] = tested on: Acinetobacter genomosp. 3; test: as above; details: Acinetobacter genomosp. 3, isolate PU78

| Molecule | MIC (Acinetobacter baumannii [2]) [µg/mL] | MIC (Acinetobacter baumannii [4]) [µg/mL] | MIC [5] [µg/mL] | MIC (Acinetobacter baumannii [6]) [µg/mL] | MIC (Acinetobacter phenon 5) [µg/mL] | MIC (Acinetobacter baumannii [10]) [µg/mL] | MIC (Acinetobacter baumannii [11]) [µg/mL] | MIC (Acinetobacter baumannii [12]) [µg/mL] | MIC (Acinetobacter baumannii [13]) [µg/mL] | MIC (Acinetobacter baumannii [14]) [µg/mL] | MIC (Acinetobacter baumannii [15]) [µg/mL] | MIC (Acinetobacter baumannii [16]) [µg/mL] | MIC [17] [µg/mL] | MIC [18] [µg/mL] | MIC (Acinetobacter baumannii [19]) [µg/mL] | MIC (Acinetobacter baumannii [20]) [µg/mL] | MIC (Acinetobacter baumannii [21]) [µg/mL] | MIC (Acinetobacter baumannii [22]) [µg/mL] | MIC (Acinetobacter baumannii [24]) [µg/mL] | MIC (Acinetobacter baumannii [25]) [µg/mL] | further results |
| --- | --- | --- | --- | --- | --- | --- | --- | --- | --- | --- | --- | --- | --- | --- | --- | --- | --- | --- | --- | --- | --- |
| COLISTIN | 0.5 | 0.5 | 0.5 | 0.5 | 0.5 | 1 | 1 | 1 | 1 | 1 | 0.5 | 0.5 | 0.5 | 0.5 | 1 | 1 | 1 | 1 | 0.5 | 0.5 | MIC [1]: 1 µg/mL; MIC [3]: 1 µg/mL; MIC (Acinetobacter baumannii [7]): 1 µg/mL; MIC [8]: 1 µg/mL; MIC (Acinetobacter baumannii [9]): 0.5 µg/mL; MIC [23]: 1 µg/mL |
| C[C@@H](O)[C@H]1C(=O)N2C(C(=O)O)=C(SCCNC=N)C[C@H]12 [IMIPENEM ANHYDROUS] | 16 (≈ 53.4 µM) | 64 (≈ 214 µM) | 64 (≈ 214 µM) | 64 (≈ 214 µM) | 64 (≈ 214 µM) | 64 (≈ 214 µM) | 64 (≈ 214 µM) | 64 (≈ 214 µM) | 32 (≈ 107 µM) | 64 (≈ 214 µM) | 16 (≈ 53.4 µM) | 64 (≈ 214 µM) | 32 (≈ 107 µM) | 16 (≈ 53.4 µM) | 16 (≈ 53.4 µM) | 64 (≈ 214 µM) | 32 (≈ 107 µM) | 16 (≈ 53.4 µM) | 64 (≈ 214 µM) | 32 (≈ 107 µM) | MIC [26]: 16 µg/mL (≈ 53.4 µM); MIC [27]: 16 µg/mL (≈ 53.4 µM); MIC (Acinetobacter baumannii [7]): 32 µg/mL (≈ 107 µM); MIC [8]: 16 µg/mL (≈ 53.4 µM); MIC (Acinetobacter baumannii [9]): 32 µg/mL (≈ 107 µM); MIC [23]: 64 µg/mL (≈ 214 µM) |
| C[C@H]1COc2c(N3CCN(C)CC3)c(F)cc3c(=O)c(C(=O)O)cn1c23.C[C@H]1COc2c(N3CCN(C)CC3)c(F)cc3c(=O)c(C(=O)O)cn1c23.O [LEVOFLOXACIN] | – | > 32 | > 32 | 4 | 0.06 | 4 | 4 | 16 | 0.5 | 4 | > 32 | 4 | 0.12 | 0.06 | > 32 | 16 | 4 | 4 | 16 | 16 | MIC [26]: 0.125 µg/mL; MIC [27]: 0.125 µg/mL; MIC [8]: 0.12 µg/mL; MIC [23]: 4 µg/mL |
| CN(C)c1ccc(O)c2c1C[C@H]1C[C@H]3[C@H](N(C)C)C(O)=C(C(N)=O)C(=O)[C@@]3(O)C(O)=C1C2=O [MINOCYCLINE] | 4 (≈ 8.74 µM) | 0.5 (≈ 1.09 µM) | 8 (≈ 17.5 µM) | 2 (≈ 4.37 µM) | 0.5 (≈ 1.09 µM) | 8 (≈ 17.5 µM) | 4 (≈ 8.74 µM) | 16 (≈ 35 µM) | 0.5 (≈ 1.09 µM) | 2 (≈ 4.37 µM) | 4 (≈ 8.74 µM) | 2 (≈ 4.37 µM) | 0.25 (≈ 0.546 µM) | 0.5 (≈ 1.09 µM) | 16 (≈ 35 µM) | 8 (≈ 17.5 µM) | 32 (≈ 69.9 µM) | 32 (≈ 69.9 µM) | 4 (≈ 8.74 µM) | 16 (≈ 35 µM) | MIC [26]: ≤ 0.125 µg/mL; MIC [28]: ≤ 0.125 µg/mL; MIC (Acinetobacter baumannii [7]): 8 µg/mL (≈ 17.5 µM); MIC [8]: 0.5 µg/mL (≈ 1.09 µM); MIC (Acinetobacter baumannii [9]): 8 µg/mL (≈ 17.5 µM); MIC [23]: 0.25 µg/mL (≈ 0.546 µM) |
| GENTAMICIN | > 256 | > 256 | > 256 | > 256 | > 256 | > 256 | > 256 | > 256 | > 256 | > 256 | > 256 | > 256 | > 256 | > 256 | > 256 | > 256 | > 256 | 1 | > 256 | > 256 | MIC [1]: > 256 µg/mL; MIC [3]: 1 µg/mL; MIC (Acinetobacter baumannii [7]): 4 µg/mL; MIC (Acinetobacter baumannii [9]): > 256 µg/mL |
